Paper PMC11955804, “Histidine-rich enantiomeric peptide coacervates enhance antigen sequestration and presentation to T cells” (Chemical Science, 2025)

System: CD4+T cells from OT-II mice on BMDCs
Assay: OT-II CD4+ T cell proliferation
Assay type: cell-based, mouse
Settings: BMDCs treated with OVA-loaded coacervates 24 h, CTV-labeled OT-II T cells ~66 h, flow cytometry
Experimental: page 14: parameters across two channels: eGFP and DAPI. […] Cells were incubated at 37°C (protected from light) for 20 min, after which 5× staining volume of EasySep Buffer was added for another 5 min of incubation. The cells were counted again, centrifuged at 300 g for 5 min, resuspended in RPMI-1640 (Gibco 31800- 022) with 10% FBS (R and D Systems […]), 10 mM HEPES (Sigma H0887), 1× MEM NEAA (Gibco 11140-050), 1 mM sodium pyruvate (Gibco 11360-070), 1× pen-strep glutamine (Gibco 10378-016), and 55 μM β-mercaptoethanol (Gibco 21985-023) added fresh, and then plated onto treated BMDCs. The plates were incubated for ~66 h, after which supernatants were collected for Mouse Adaptive Immune CodePlex Secretome analyses (Bruker Cellular Analysis, Inc), and cells were collected for flow cytometry studies. Flow cytometry Total cells from the spleen and lymph nodes of OT-I/OT-II mice were washed with FACS […] staining. […] Data were analyzed with FlowJo version 10. Proliferation was quantified as the percentage of daughter cells out of single, live, CD4+ or CD8+T cells, gated as having a lower CTV fluorescence intensity than the peak of highest fluorescence (undivided). […] Data are expressed as mean ± S.E.M. and statistical analysis was performed using a one-way or two-way ANOVA with Tukey/Sidak's/Dunnett's multiple comparison test. *p ≤ 0.05, **p ≤ 0.01, ***p ≤ 0.001, ****p ≤ 0.0001. […]

(GHGLY)4 [GL 20] was tested, and the “CD4+T cell proliferation” value was “slightly higher”.
